PMC6409085, “Three odorant-binding proteins are involved in the behavioral response of Sogatella furcifera to rice plant volatiles” (PeerJ, 2019)
pIC50: −log10 of the molar value. Where “and” joins values, the source holds several entries; their conditions need not be identical. Identical values can stand only once.

How the values were obtained:
[1] = biological target: SfurOBP1 (Sogatella furcifera, UniProt V5T8N5); assay: biochemical; format: binding; conditions: for Fluorescence competitive binding assay, fluorescence intensity: OBP1, three replicate columns
In short: (§1)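 1-NPN displacement assay with odorant competitor at 2–20 µM; protein and probe both 2.0 µM at pH 7.4. Ki is calculated from IC50 using the protein/1-NPN dissociation constant.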

[2] = biological target: SfurOBP11 (Sogatella furcifera, UniProt V5T6E3); assay: biochemical; format: binding
In short: as §1

[3] = biological target: SfurOBP2 (Sogatella furcifera, UniProt V5T759); assay: biochemical; format: binding
In short: as §1

[4] = biological target: SfurOBP3 (Sogatella furcifera, UniProt V5T818); assay: biochemical; format: binding; conditions: for Fluorescence competitive binding assay, fluorescence intensity: OBP3, three replicate columns
In short: as §1

[5] = system: S. furcifera adults; assay: Y-tube olfactometer behavioral trials; format: in vivo, Sogatella furcifera; conditions: odorant 50 µL/L vs hexane
In short: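 Single S. furcifera adults (2 days post-emergence, starved 0.5 h) chose between odorant (100 µL of 50 µL/L on filter paper) and hexane control in a glass Y-tube, charcoal-filtered humidified air 300 mL/min per arm, 25 ± 1 °C, 50% RH. Choice scored if insect passed half an arm and stayed >1 min within 10 min; 45 insects per compound, chi-squared test.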

Chain of SfurOBP2 (V5T759 entry or part of it): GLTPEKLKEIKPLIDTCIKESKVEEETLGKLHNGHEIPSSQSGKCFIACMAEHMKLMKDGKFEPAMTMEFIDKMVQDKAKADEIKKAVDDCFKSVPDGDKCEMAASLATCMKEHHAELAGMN
Chain of SfurOBP3 (V5T818 entry or part of it): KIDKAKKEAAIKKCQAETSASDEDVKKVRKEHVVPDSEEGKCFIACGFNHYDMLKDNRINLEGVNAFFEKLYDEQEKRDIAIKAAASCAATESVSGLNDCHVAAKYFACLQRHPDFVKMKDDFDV
Chain of SfurOBP11 (V5T6E3 entry or part of it): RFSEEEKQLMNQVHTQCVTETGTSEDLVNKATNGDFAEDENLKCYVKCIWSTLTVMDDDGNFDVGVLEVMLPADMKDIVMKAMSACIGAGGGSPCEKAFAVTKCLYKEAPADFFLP
Chain of SfurOBP1 (V5T8N5 entry or part of it): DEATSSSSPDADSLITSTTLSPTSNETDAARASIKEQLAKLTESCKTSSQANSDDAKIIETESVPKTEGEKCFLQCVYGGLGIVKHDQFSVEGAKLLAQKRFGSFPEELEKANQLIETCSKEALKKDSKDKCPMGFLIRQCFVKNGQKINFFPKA

Fluorescence competitive binding assay, fluorescence intensity ([1]; ligand concentration 2 (μM)): 5574 and 5550 and 5238
Fluorescence competitive binding assay, fluorescence intensity ([1]; ligand concentration 4 (μM)): 4710 and 5782 and 5020
Fluorescence competitive binding assay, fluorescence intensity ([1]; ligand concentration 6 (μM)): 5308 and 5201 and 5270
Fluorescence competitive binding assay, fluorescence intensity ([1]; ligand concentration 8 (μM)): 4498 and 4902 and 5186
Fluorescence competitive binding assay, fluorescence intensity ([1]; ligand concentration 10 (μM)): 4649 and 5445 and 5409
Fluorescence competitive binding assay, fluorescence intensity ([1]; ligand concentration 12 (μM)): 5039 and 5542 and 4835
Fluorescence competitive binding assay, fluorescence intensity ([1]; ligand concentration 14 (μM)): 5190 and 5205 and 6069
Fluorescence competitive binding assay, fluorescence intensity ([1]; ligand concentration 16 (μM)): 4320 and 5267 and 4703
Fluorescence competitive binding assay, fluorescence intensity ([1]; ligand concentration 18 (μM)): 5435 and 5537 and 6009
Fluorescence competitive binding assay, fluorescence intensity ([1]; ligand concentration 20 (μM)): 6807 and 4924 and 6337
pIC50 ([1]; SfurOBP1, protein and 1-NPN both 2.0 µM, competitor 2-20 µM, read-out: IC50): < 4.70
pIC50 ([2]; SfurOBP11, protein and 1-NPN both 2.0 µM, competitor 2-20 µM, read-out: IC50): < 4.70
Fluorescence intensity, fluorescence competitive binding assay, OBP11 ([2]; ligand concentration 2, replicate 1): 26535
Fluorescence intensity, fluorescence competitive binding assay, OBP11 ([2]; ligand concentration 2, replicate 2): 26162
Fluorescence intensity, fluorescence competitive binding assay, OBP11 ([2]; ligand concentration 2, replicate 3): 26541
Fluorescence intensity, fluorescence competitive binding assay, OBP11 ([2]; ligand concentration 4, replicate 1): 25394
Fluorescence intensity, fluorescence competitive binding assay, OBP11 ([2]; ligand concentration 4, replicate 2): 26325
Fluorescence intensity, fluorescence competitive binding assay, OBP11 ([2]; ligand concentration 4, replicate 3): 27262
Fluorescence intensity, fluorescence competitive binding assay, OBP11 ([2]; ligand concentration 6, replicate 1): 26264
Fluorescence intensity, fluorescence competitive binding assay, OBP11 ([2]; ligand concentration 6, replicate 2): 26035
Fluorescence intensity, fluorescence competitive binding assay, OBP11 ([2]; ligand concentration 6, replicate 3): 26502
Fluorescence intensity, fluorescence competitive binding assay, OBP11 ([2]; ligand concentration 8, replicate 1): 25045
Fluorescence intensity, fluorescence competitive binding assay, OBP11 ([2]; ligand concentration 8, replicate 2): 25714
Fluorescence intensity, fluorescence competitive binding assay, OBP11 ([2]; ligand concentration 8, replicate 3): 24376
Fluorescence intensity, fluorescence competitive binding assay, OBP11 ([2]; ligand concentration 10, replicate 1): 24885
Fluorescence intensity, fluorescence competitive binding assay, OBP11 ([2]; ligand concentration 10, replicate 2): 24226
Fluorescence intensity, fluorescence competitive binding assay, OBP11 ([2]; ligand concentration 10, replicate 3): 23566
Fluorescence intensity, fluorescence competitive binding assay, OBP11 ([2]; ligand concentration 12, replicate 1): 21957
Fluorescence intensity, fluorescence competitive binding assay, OBP11 ([2]; ligand concentration 12, replicate 2): 22135
Fluorescence intensity, fluorescence competitive binding assay, OBP11 ([2]; ligand concentration 12, replicate 3): 20925
Fluorescence intensity, fluorescence competitive binding assay, OBP11 ([2]; ligand concentration 14, replicate 1): 23062
Fluorescence intensity, fluorescence competitive binding assay, OBP11 ([2]; ligand concentration 14, replicate 2): 21821
Fluorescence intensity, fluorescence competitive binding assay, OBP11 ([2]; ligand concentration 14, replicate 3): 20452
Fluorescence intensity, fluorescence competitive binding assay, OBP11 ([2]; ligand concentration 16, replicate 1): 19007
Fluorescence intensity, fluorescence competitive binding assay, OBP11 ([2]; ligand concentration 16, replicate 2): 19354
Fluorescence intensity, fluorescence competitive binding assay, OBP11 ([2]; ligand concentration 16, replicate 3): 17450
Fluorescence intensity, fluorescence competitive binding assay, OBP11 ([2]; ligand concentration 18, replicate 1): 21957
Fluorescence intensity, fluorescence competitive binding assay, OBP11 ([2]; ligand concentration 18, replicate 2): 23680
Fluorescence intensity, fluorescence competitive binding assay, OBP11 ([2]; ligand concentration 18, replicate 3): 21455
Fluorescence intensity, fluorescence competitive binding assay, OBP11 ([2]; ligand concentration 20, replicate 1): 23354
Fluorescence intensity, fluorescence competitive binding assay, OBP11 ([2]; ligand concentration 20, replicate 2): 26458
Fluorescence intensity, fluorescence competitive binding assay, OBP11 ([2]; ligand concentration 20, replicate 3): 24921
pIC50 ([3]; SfurOBP2, protein and 1-NPN both 2.0 µM, competitor 2-20 µM, read-out: IC50): < 4.70
Fluorescence competitive binding assay, OBP2 (raw fluorescence reading) ([3]; ligand concentration 2 (unit not given), replicate column 1 of 3): 18213
Fluorescence competitive binding assay, OBP2 (raw fluorescence reading) ([3]; ligand concentration 2 (unit not given), replicate column 2 of 3): 17695
Fluorescence competitive binding assay, OBP2 (raw fluorescence reading) ([3]; ligand concentration 2 (unit not given), replicate column 3 of 3): 18887
Fluorescence competitive binding assay, OBP2 (raw fluorescence reading) ([3]; ligand concentration 4 (unit not given), replicate column 1 of 3): 18465
Fluorescence competitive binding assay, OBP2 (raw fluorescence reading) ([3]; ligand concentration 4 (unit not given), replicate column 2 of 3): 18805
Fluorescence competitive binding assay, OBP2 (raw fluorescence reading) ([3]; ligand concentration 4 (unit not given), replicate column 3 of 3): 18729
Fluorescence competitive binding assay, OBP2 (raw fluorescence reading) ([3]; ligand concentration 6 (unit not given), replicate column 1 of 3): 17576
Fluorescence competitive binding assay, OBP2 (raw fluorescence reading) ([3]; ligand concentration 6 (unit not given), replicate column 2 of 3): 17836
Fluorescence competitive binding assay, OBP2 (raw fluorescence reading) ([3]; ligand concentration 6 (unit not given), replicate column 3 of 3): 18066
Fluorescence competitive binding assay, OBP2 (raw fluorescence reading) ([3]; ligand concentration 8 (unit not given), replicate column 1 of 3): 15752
Fluorescence competitive binding assay, OBP2 (raw fluorescence reading) ([3]; ligand concentration 8 (unit not given), replicate column 2 of 3): 18865
Fluorescence competitive binding assay, OBP2 (raw fluorescence reading) ([3]; ligand concentration 8 (unit not given), replicate column 3 of 3): 17007
Fluorescence competitive binding assay, OBP2 (raw fluorescence reading) ([3]; ligand concentration 10 (unit not given), replicate column 1 of 3): 16925
Fluorescence competitive binding assay, OBP2 (raw fluorescence reading) ([3]; ligand concentration 10 (unit not given), replicate column 2 of 3): 17786
Fluorescence competitive binding assay, OBP2 (raw fluorescence reading) ([3]; ligand concentration 10 (unit not given), replicate column 3 of 3): 17356
Fluorescence competitive binding assay, OBP2 (raw fluorescence reading) ([3]; ligand concentration 12 (unit not given), replicate column 1 of 3): 16049
Fluorescence competitive binding assay, OBP2 (raw fluorescence reading) ([3]; ligand concentration 12 (unit not given), replicate column 2 of 3): 16437
Fluorescence competitive binding assay, OBP2 (raw fluorescence reading) ([3]; ligand concentration 12 (unit not given), replicate column 3 of 3): 16824
Fluorescence competitive binding assay, OBP2 (raw fluorescence reading) ([3]; ligand concentration 14 (unit not given), replicate column 1 of 3): 15270
Fluorescence competitive binding assay, OBP2 (raw fluorescence reading) ([3]; ligand concentration 14 (unit not given), replicate column 2 of 3): 15647
Fluorescence competitive binding assay, OBP2 (raw fluorescence reading) ([3]; ligand concentration 14 (unit not given), replicate column 3 of 3): 14905
Fluorescence competitive binding assay, OBP2 (raw fluorescence reading) ([3]; ligand concentration 16 (unit not given), replicate column 1 of 3): 15319
Fluorescence competitive binding assay, OBP2 (raw fluorescence reading) ([3]; ligand concentration 16 (unit not given), replicate column 2 of 3): 14300
Fluorescence competitive binding assay, OBP2 (raw fluorescence reading) ([3]; ligand concentration 16 (unit not given), replicate column 3 of 3): 16123
Fluorescence competitive binding assay, OBP2 (raw fluorescence reading) ([3]; ligand concentration 18 (unit not given), replicate column 1 of 3): 15075
Fluorescence competitive binding assay, OBP2 (raw fluorescence reading) ([3]; ligand concentration 18 (unit not given), replicate column 2 of 3): 15152
Fluorescence competitive binding assay, OBP2 (raw fluorescence reading) ([3]; ligand concentration 18 (unit not given), replicate column 3 of 3): 15228
Fluorescence competitive binding assay, OBP2 (raw fluorescence reading) ([3]; ligand concentration 20 (unit not given), replicate column 1 of 3): 14131
Fluorescence competitive binding assay, OBP2 (raw fluorescence reading) ([3]; ligand concentration 20 (unit not given), replicate column 2 of 3): 14026
Fluorescence competitive binding assay, OBP2 (raw fluorescence reading) ([3]; ligand concentration 20 (unit not given), replicate column 3 of 3): 13920
Fluorescence competitive binding assay, fluorescence intensity ([4]; ligand concentration 2): 34223 and 34200 and 33767
Fluorescence competitive binding assay, fluorescence intensity ([4]; ligand concentration 4): 34565 and 34966 and 35111
Fluorescence competitive binding assay, fluorescence intensity ([4]; ligand concentration 6): 33473 and 32986 and 33557
Fluorescence competitive binding assay, fluorescence intensity ([4]; ligand concentration 8): 31804 and 31815 and 33904
Fluorescence competitive binding assay, fluorescence intensity ([4]; ligand concentration 10): 31933 and 33856 and 32393
Fluorescence competitive binding assay, fluorescence intensity ([4]; ligand concentration 12): 28357 and 30958 and 31303
Fluorescence competitive binding assay, fluorescence intensity ([4]; ligand concentration 14): 30291 and 29441 and 31149
Fluorescence competitive binding assay, fluorescence intensity ([4]; ligand concentration 16): 26096 and 27512 and 26789
Fluorescence competitive binding assay, fluorescence intensity ([4]; ligand concentration 18): 36577 and 32045 and 32081
Fluorescence competitive binding assay, fluorescence intensity ([4]; ligand concentration 20): 29304 and 29350 and 25941
binding affinity to SfurOBP3 (in words) ([4]; SfurOBP3): high binding affinities
pIC50 ([4]; SfurOBP3, protein and 1-NPN both 2.0 µM, competitor 2-20 µM, read-out: IC50): 4.76
SMILES: CC(=O)c1ccccc1 [acetophenone]
behavioral response of S. furcifera (in words) [5]: strongly attracted
number of insects choosing hexane arm ([5]; adults): 11
number of insects choosing volatilies arm ([5]; adults): 20
number of insects failed (no choice) ([5]; adults): 9
